{
  "source": "paper PMC3566779",
  "about": "(The Journal of neuroscience : the official journal of the …, 2012)",
  "key": {"[1]": {"system": "c-Fos expression in the lateral parabrachial nucleus", "assay": "Cold-induced c-Fos immunohistochemistry in the lateral parabrachial nucleus", "type": "in vivo, rat", "details": "rats, 6 mg/kg i.v. pretreatment, 2-h cold exposure (4°C)"}, "Trpm8−/− mice": {"system": "Trpm8−/− mice", "assay": "Abdominal Tb in Trpm8−/− mice, telemetry setup", "type": "in vivo, mouse", "details": "Ta 26°C"}, "Wistar rats [2]": {"system": "Wistar rats", "assay": "BAT thermometry", "type": "in vivo, rat", "details": "1 mg/kg i.v. at 32°C"}, "rat TRPM8": {"biological_target": "rat TRPM8 (Rattus norvegicus, UniProt Q8R455)", "sequence (Q8R455 whole entry)": "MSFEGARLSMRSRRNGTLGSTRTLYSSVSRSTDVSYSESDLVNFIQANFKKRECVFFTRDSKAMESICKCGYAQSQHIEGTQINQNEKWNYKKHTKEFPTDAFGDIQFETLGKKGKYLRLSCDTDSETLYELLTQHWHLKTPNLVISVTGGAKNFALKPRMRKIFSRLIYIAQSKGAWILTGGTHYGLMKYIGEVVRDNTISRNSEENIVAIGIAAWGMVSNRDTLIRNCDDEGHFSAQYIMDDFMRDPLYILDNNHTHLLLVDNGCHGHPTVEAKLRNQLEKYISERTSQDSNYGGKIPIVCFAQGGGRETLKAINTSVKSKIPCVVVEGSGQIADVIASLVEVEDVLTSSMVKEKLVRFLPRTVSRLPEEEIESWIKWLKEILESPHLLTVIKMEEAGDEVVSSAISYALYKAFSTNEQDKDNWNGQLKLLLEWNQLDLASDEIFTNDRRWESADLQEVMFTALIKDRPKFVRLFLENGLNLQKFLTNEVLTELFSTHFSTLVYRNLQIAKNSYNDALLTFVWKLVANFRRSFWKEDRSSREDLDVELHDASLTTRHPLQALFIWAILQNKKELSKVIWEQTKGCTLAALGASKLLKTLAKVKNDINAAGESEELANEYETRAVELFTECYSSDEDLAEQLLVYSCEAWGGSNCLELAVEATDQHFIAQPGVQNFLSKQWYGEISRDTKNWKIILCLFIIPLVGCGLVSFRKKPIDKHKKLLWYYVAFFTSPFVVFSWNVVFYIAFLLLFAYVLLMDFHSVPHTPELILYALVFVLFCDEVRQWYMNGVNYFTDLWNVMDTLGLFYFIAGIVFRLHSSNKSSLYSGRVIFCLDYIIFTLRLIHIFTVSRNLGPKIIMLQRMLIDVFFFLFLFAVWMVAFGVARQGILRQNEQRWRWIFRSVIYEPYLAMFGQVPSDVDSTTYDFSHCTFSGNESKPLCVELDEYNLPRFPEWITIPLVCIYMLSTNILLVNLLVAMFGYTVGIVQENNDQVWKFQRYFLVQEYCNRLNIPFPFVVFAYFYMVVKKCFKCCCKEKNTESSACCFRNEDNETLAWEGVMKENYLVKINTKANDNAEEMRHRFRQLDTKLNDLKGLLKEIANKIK", "assay": "Aequorin luminescence Ca2+ assay, CHO cells stably expressing rat TRPM8", "type": "cell-based"}, "[3]": {"system": "native TRPM8 channels in murine primary sensory neurons", "assay": "Ratiometric Ca2+ imaging of trigeminal or dorsal root ganglion neurons", "type": "cell-based, mouse"}, "Wistar rats [4]": {"system": "Wistar rats", "assay": "Deep", "type": "in vivo, rat"}, "Trpm8+/+ mice": {"system": "Trpm8+/+ mice", "assay": "Abdominal Tb in Trpm8+/+ mice, telemetry setup", "type": "in vivo, mouse", "details": "Ta 26°C"}, "Wistar rats [5]": {"system": "Wistar rats", "assay": "Colonic Tb and oxygen consumption in rats, respirometry setup", "type": "in vivo, rat", "details": "6 mg/kg i.v. over 20 min, Ta 19°C"}, "Wistar rats [6]": {"system": "Wistar rats", "assay": "Preferred Ta and abdominal Tb in rats, thermogradient setup", "type": "in vivo, rat"}, "other TRP channels": {"system": "other TRP channels", "assay": "TRP selectivity assays in CHO cells", "type": "cell-based", "details": "read-out: IC50, block of other TRP channels"}, "TRPA1": {"biological_target": "TRPA1 (Homo sapiens, UniProt O75762)", "sequence (O75762 whole entry, species assumed)": "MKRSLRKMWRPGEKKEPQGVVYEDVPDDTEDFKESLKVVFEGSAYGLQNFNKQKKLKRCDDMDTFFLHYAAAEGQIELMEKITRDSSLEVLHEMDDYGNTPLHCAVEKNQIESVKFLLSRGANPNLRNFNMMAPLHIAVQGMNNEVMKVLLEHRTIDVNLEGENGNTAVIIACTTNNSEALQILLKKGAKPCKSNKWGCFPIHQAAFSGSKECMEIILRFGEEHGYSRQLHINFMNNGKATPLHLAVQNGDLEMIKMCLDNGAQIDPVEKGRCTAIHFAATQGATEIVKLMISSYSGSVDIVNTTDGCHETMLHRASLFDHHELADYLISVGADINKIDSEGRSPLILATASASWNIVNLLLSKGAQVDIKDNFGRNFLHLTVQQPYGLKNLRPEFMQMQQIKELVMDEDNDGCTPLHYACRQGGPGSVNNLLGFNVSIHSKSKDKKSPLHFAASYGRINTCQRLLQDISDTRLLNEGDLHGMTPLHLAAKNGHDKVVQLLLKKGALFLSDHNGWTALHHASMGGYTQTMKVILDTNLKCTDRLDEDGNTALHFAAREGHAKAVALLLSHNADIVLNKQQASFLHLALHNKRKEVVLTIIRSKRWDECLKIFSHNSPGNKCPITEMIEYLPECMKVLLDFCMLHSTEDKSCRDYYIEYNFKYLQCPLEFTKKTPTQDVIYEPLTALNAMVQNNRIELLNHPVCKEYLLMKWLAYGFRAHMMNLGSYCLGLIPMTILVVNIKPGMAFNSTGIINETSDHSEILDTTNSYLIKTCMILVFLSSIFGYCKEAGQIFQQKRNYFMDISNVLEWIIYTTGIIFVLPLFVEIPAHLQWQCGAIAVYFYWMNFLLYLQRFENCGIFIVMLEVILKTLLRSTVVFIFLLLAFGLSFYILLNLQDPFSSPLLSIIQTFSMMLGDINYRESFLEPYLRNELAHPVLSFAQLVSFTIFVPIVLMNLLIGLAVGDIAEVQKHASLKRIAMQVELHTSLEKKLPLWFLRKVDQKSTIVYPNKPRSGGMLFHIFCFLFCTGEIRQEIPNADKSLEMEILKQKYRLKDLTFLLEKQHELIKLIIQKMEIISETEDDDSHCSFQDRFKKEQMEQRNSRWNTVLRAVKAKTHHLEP", "assay": "TRPA1 aequorin assay, allylisothiocyanate activation", "type": "cell-based", "details": "read-out: IC50 for TRPA1; 80 μM allylisothiocyanate as agonist"}, "TRPV4": {"biological_target": "TRPV4 (Homo sapiens, UniProt Q9HBA0)", "sequence (Q9HBA0 whole entry, species assumed)": "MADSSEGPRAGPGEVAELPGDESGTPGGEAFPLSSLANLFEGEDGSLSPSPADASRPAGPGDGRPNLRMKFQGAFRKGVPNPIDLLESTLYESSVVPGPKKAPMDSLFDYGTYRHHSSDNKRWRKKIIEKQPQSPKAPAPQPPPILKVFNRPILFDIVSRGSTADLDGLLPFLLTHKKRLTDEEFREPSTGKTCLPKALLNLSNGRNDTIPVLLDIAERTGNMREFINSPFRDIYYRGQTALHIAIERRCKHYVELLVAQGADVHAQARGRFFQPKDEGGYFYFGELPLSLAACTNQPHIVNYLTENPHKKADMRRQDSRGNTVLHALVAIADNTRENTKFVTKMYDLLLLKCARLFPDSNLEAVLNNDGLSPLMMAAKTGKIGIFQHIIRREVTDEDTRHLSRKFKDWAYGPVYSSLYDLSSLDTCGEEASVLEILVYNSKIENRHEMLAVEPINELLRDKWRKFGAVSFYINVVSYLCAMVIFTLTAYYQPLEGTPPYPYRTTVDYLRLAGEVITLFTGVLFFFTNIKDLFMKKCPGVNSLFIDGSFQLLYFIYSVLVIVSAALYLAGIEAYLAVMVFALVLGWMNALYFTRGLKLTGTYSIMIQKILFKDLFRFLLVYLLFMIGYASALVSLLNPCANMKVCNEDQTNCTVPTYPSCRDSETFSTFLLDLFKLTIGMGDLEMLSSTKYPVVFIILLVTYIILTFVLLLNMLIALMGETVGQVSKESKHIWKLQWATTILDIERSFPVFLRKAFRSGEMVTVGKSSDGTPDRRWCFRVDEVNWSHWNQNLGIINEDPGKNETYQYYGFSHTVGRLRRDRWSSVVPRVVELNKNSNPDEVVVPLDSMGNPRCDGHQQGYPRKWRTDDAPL", "assay": "TRPV4 aequorin assay, 4α-PDD activation", "type": "cell-based", "details": "read-out: IC50 for TRPV4; 1 μM 4α-PDD as agonist"}, "TRPV1": {"biological_target": "TRPV1 (Homo sapiens, UniProt Q8NER1)", "sequence (Q8NER1 whole entry, species assumed)": "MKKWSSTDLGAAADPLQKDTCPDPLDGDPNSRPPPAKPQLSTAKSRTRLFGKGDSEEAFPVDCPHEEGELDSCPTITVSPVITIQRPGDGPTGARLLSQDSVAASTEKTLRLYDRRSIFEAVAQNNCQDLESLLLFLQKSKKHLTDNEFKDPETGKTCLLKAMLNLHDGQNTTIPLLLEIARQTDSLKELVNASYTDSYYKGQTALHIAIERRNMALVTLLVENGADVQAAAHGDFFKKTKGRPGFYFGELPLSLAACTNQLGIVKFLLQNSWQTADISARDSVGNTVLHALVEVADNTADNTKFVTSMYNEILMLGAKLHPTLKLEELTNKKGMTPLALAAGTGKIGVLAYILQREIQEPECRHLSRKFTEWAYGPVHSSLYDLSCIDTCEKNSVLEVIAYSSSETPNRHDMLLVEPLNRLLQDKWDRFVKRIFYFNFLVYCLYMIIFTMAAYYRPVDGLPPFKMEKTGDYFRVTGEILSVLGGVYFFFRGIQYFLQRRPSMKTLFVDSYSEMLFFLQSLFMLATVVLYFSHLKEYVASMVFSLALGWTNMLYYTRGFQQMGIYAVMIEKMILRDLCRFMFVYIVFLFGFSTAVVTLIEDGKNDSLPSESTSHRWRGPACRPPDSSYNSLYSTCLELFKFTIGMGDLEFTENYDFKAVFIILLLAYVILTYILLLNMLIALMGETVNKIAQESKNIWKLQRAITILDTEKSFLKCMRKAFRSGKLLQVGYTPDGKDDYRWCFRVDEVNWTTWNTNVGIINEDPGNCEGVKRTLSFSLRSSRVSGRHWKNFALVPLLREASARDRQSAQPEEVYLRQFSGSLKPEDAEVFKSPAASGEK", "assay": "TRPV1 assay, capsaicin activation", "type": "cell-based"}, "Wistar rats [7]": {"system": "Wistar rats", "details": "TRPV1 antagonist; ref Garami et al., 2010; Steiner et al., 2007; cited from earlier work"}},
  "data": [
    {"smiles": "COc1cc(CN(CCN)C(=O)c2cccs2)ccc1OCc1ccccc1.Cl", "note": "[M8-B, N-(2-aminoethyl)-N-(4-(benzyloxy)-3-methoxybenzyl)thiophene-2-carboxamide hydrochloride]", "values": [
      {"measurement": "Decrease in number of cold-induced c-Fos-positive neurons, LPBE", "setting": "[1]; p = 0.027", "value": 48, "unit": "%"},
      {"measurement": "Decrease in number of cold-induced c-Fos-positive neurons, LPBC", "setting": "[1]; p = 0.178", "value": 41, "unit": "%"},
      {"measurement": "Effect on abdominal Tb", "setting": "Trpm8−/− mice; 6 mg/kg i.p.", "value": "not affected"},
      {"measurement": "BAT thermogenic response to cold", "setting": "Wistar rats [2]; then 11°C, p = 0.105", "value": "tended to be less pronounced"},
      {"measurement": "Nadir of Tb", "setting": "Wistar rats [2]; then transferred to 11°C, at 150 min", "value": "~ 36.2 °C"},
      {"measurement": "IC50", "setting": "rat TRPM8; IC50, inhibition of rat TRPM8 activation by cold, cold (10°C)", "value": "7.8 ± 1.1", "unit": "nM"},
      {"measurement": "IC50", "setting": "rat TRPM8; IC50, inhibition of rat TRPM8 activation by icilin, icilin (1 μM)", "value": "26.9 ± 12.1", "unit": "nM"},
      {"measurement": "Number of cold-responsive neurons", "setting": "[3]; M8-B 10 μM, cold (15°C), 19 ± 3% without treatment", "value": "4 ± 1", "unit": "%"},
      {"measurement": "Number of neurons responsive to menthol", "setting": "[3]; menthol 250 μM", "value": "significantly decreased"},
      {"measurement": "Heat loss index (HLI) when Tb was 37.5°C", "setting": "Wistar rats [4]; 1 mg/kg i.v. at 32°C then 21°C, controls HLI ~0", "value": "~ 0.4"},
      {"measurement": "Inter-treatment Tb difference (M8-B vs vehicle)", "setting": "Wistar rats [4]; 1 mg/kg i.v. at Ta 32°C, then transferred to 11°C", "value": "exceeded 1 °C"},
      {"measurement": "Inter-treatment Tb difference (M8-B vs vehicle)", "setting": "Wistar rats [4]; 1 mg/kg i.v. at Ta 32°C, then transferred to 14°C", "value": "exceeded 1 °C"},
      {"measurement": "Delay of the development of tail skin vasoconstriction", "setting": "Wistar rats [4]; 1 mg/kg i.v. at Ta 32°C, then transferred to 21°C", "value": "~ 5 min"},
      {"measurement": "Effect on Tb", "setting": "Wistar rats [4]; 1 mg/kg i.v. over 40 min at Ta 32°C, then transferred to 21°C", "value": "significant decrease in Tb"},
      {"measurement": "Changes in Tb compared to vehicle", "setting": "Wistar rats [4]; 1 mg/kg i.v., constant Ta 15°C", "value": "no significant changes"},
      {"measurement": "Effect on Tb", "setting": "Wistar rats [4]; 1 mg/kg i.v., constant Ta 19°C, data not shown", "value": "did not affect Tb"},
      {"measurement": "Changes in Tb compared to vehicle", "setting": "Wistar rats [4]; 1 mg/kg i.v., constant Ta 32°C", "value": "no significant changes"},
      {"measurement": "Tail Tsk at which M8-B caused a decrease in Tb (threshold, two-line model)", "setting": "Wistar rats [4]; 1 mg/kg i.v., experiments of Fig. 6B–H", "value": "≤ 23.2", "unit": "°C"},
      {"measurement": "Effect on Tb", "setting": "Wistar rats [4]; 2.5 mg/kg intracerebroventricularly, Ta 19°C", "value": "no effect"},
      {"measurement": "Effect on Tb", "setting": "Wistar rats [4]; 2.5 mg/kg intrathecally, Ta 19°C", "value": "no effect"},
      {"measurement": "Decrease in colonic Tb compared to vehicle", "setting": "Wistar rats [4]; 6 mg/kg i.v. over 20 min, Ta 19°C", "value": "~ 0.9 °C"},
      {"measurement": "Effect on Tb", "setting": "Wistar rats [4]; 6 mg/kg intrathecally, Ta 19°C", "value": "effective in decreasing Tb"},
      {"measurement": "Threshold intravenous dose for a significant decrease in deep Tb", "setting": "Wistar rats [4]; i.v., Ta 19°C", "value": 2.5, "unit": "mg/kg"},
      {"measurement": "Decrease in abdominal Tb", "setting": "Trpm8+/+ mice; 6 mg/kg i.p.", "value": "~ 0.8 °C"},
      {"measurement": "VO2 within the first hour after infusion", "setting": "Wistar rats [5]; from 19 ml/kg/min", "value": "~15", "unit": "mL/min/kg"},
      {"measurement": "Colonic Tb within the first hour after infusion", "setting": "Wistar rats [5]; from ~37.3°C", "value": "~ 36.5 °C"},
      {"measurement": "Effect on hyperthermic response to menthol", "setting": "Wistar rats [6]; rats, M8-B 1 mg/kg i.v. pretreatment, p = 0.0009", "value": "significantly attenuated"},
      {"measurement": "Effect on warmth-seeking response to menthol", "setting": "Wistar rats [6]; rats, M8-B 1 mg/kg i.v. pretreatment, p = 0.096", "value": "tended to attenuate"},
      {"measurement": "IC50", "setting": "other TRP channels", "value": "> 20000", "unit": "nM"}
    ]},
    {"smiles": "C=C(C)[C@]12C[C@@H](C)[C@@]34O[C@](Cc5ccccc5)(O[C@@H]1[C@@H]3C=C(COC(=O)Cc1ccc(O)c(OC)c1)C[C@]1(O)C(=O)C(C)=C[C@@H]41)O2", "note": "[RTX, resiniferatoxin, reference compound]", "values": [
      {"measurement": "Decrease in Tb", "setting": "Trpm8−/− mice; 150 ng/kg i.p.", "value": "~ 2.5 °C"},
      {"measurement": "Effect on abdominal Tb", "setting": "Trpm8+/+ mice; 150 ng/kg i.p.", "value": "readily produces hypothermia"}
    ]},
    {"smiles": "Cl.Cl.Cl.Cl.Cl.Cl.N.N.N.N.N.N.N.N.N.N.N.N.N.N.[O-2].[O-2].[Ru+3].[Ru+3].[Ru+4]", "note": "[ruthenium red]", "values": [
      {"measurement": "IC50", "setting": "TRPA1", "value": 367, "unit": "nM"},
      {"measurement": "IC50", "setting": "TRPV4", "value": 24, "unit": "nM"}
    ]},
    {"smiles": "CC1CCC(C(C)C)C(O)C1", "note": "(stereo not drawn) [menthol, reference compound]", "values": [
      {"measurement": "Rise in Tb after menthol", "setting": "Wistar rats [6]; rats pre-infused with vehicle, 10 g of 0.5% menthol ointment epidermally", "value": "~ 1 °C"}
    ]},
    {"smiles": "CC(C)(C)c1ccc(/C=C/C(=O)Nc2ccc3c(c2)OCCO3)cc1", "note": "[AMG9810, (E)-3-(4-t-butylphenyl)-N-(2,3-dihydrobenzo[b][1,4]dioxin-6-yl)acrylamide]", "values": [
      {"measurement": "IC50", "setting": "TRPV1", "value": 86, "unit": "nM"}
    ]},
    {"smiles": "O=C(/C=C/c1ccc(C(F)(F)F)nc1N1CCCCC1)Nc1cccc2c1CC(O)CC2", "note": "(stereo not drawn) [AMG0347]", "values": [
      {"measurement": "Thermal response", "setting": "Wistar rats [7]", "value": "cause hyperthermia"}
    ]}
  ]
}
